26 compounds from ChEMBL document CHEMBL3991601, “The target landscape of clinical kinase drugs” (Science, 2017) can be followed below.

For assay [1], the target named is T1, RNA cytidine acetyltransferase (Homo sapiens, UniProt Q9H0A0).
T1 sequence (Q9H0A0 whole entry): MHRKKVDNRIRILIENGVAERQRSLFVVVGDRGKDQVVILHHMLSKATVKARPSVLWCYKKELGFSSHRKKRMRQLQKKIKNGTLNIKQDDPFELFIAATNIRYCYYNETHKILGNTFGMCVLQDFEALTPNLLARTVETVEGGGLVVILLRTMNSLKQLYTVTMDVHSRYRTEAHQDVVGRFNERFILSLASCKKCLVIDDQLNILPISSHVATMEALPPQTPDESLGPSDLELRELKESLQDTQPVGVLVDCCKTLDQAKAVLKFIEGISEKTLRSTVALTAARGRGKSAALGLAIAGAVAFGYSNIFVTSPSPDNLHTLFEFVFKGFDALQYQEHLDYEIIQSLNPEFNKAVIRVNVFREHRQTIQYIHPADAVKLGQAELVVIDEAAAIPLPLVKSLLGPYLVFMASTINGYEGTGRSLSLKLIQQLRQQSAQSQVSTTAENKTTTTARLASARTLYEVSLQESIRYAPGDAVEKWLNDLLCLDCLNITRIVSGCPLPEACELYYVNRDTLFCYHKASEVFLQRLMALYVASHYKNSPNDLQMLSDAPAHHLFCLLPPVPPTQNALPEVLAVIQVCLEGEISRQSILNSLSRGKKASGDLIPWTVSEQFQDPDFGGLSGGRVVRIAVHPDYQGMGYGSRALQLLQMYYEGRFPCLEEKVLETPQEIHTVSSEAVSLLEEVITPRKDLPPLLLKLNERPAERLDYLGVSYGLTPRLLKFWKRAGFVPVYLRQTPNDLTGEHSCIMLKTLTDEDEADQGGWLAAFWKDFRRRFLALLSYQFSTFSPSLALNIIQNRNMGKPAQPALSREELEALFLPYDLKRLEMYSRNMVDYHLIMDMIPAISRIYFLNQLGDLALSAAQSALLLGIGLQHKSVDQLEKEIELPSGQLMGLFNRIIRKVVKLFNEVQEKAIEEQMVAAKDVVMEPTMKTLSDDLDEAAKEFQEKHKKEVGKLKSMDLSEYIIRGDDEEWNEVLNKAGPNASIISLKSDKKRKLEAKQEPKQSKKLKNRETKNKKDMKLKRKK

For assay [2], the target named is T2, Serine/threonine-protein kinase ULK1 (Homo sapiens, UniProt O75385).
T2 sequence (O75385 whole entry): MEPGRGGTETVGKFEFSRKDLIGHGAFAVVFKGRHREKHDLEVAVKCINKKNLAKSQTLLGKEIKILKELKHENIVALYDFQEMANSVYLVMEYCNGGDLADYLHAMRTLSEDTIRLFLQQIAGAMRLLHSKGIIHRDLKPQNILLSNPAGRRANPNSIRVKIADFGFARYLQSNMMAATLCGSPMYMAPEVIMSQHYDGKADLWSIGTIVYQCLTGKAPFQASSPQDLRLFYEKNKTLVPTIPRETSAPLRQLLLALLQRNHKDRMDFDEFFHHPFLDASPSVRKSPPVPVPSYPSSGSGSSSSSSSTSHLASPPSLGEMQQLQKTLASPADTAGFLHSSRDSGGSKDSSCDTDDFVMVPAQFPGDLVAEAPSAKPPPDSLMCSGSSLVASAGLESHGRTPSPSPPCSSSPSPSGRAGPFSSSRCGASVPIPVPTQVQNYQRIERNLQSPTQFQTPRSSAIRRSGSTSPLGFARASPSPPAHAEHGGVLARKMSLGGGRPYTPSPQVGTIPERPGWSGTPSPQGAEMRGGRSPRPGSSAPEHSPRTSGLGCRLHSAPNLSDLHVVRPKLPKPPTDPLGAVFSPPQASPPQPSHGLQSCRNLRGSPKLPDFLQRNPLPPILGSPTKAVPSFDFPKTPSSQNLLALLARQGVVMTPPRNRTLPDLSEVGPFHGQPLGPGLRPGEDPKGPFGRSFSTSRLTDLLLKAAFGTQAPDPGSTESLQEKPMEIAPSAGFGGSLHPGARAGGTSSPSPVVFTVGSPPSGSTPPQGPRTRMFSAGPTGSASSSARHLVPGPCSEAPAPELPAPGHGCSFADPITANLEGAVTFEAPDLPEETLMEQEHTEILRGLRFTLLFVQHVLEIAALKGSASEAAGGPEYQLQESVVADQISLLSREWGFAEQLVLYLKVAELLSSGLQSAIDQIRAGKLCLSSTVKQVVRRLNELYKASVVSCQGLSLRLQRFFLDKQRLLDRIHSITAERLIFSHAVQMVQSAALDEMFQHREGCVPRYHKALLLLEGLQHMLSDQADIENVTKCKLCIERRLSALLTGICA

Assay [3] addresses Ribosomal protein S6 kinase alpha-3 (Homo sapiens, UniProt P51812).
The next assay concerns the target T3, ADP/ATP translocase 3 (Homo sapiens, UniProt P12236).
T3 sequence (P12236 whole entry): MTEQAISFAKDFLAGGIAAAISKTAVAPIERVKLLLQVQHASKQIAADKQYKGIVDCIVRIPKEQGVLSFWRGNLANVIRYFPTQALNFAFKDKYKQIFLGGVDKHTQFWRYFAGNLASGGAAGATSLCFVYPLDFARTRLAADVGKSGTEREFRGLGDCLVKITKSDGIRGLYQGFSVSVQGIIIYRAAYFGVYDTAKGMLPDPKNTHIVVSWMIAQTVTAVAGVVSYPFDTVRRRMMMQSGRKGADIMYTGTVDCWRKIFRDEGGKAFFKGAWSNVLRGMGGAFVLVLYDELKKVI

Structures are written as SMILES. Active and inactive are the calls of the source. Some results are limits rather than exact numbers.
Note: in the data inactive means no Kd found up to 30 µM.

Sequence of Ribosomal protein S6 kinase alpha-3 (P51812 whole entry): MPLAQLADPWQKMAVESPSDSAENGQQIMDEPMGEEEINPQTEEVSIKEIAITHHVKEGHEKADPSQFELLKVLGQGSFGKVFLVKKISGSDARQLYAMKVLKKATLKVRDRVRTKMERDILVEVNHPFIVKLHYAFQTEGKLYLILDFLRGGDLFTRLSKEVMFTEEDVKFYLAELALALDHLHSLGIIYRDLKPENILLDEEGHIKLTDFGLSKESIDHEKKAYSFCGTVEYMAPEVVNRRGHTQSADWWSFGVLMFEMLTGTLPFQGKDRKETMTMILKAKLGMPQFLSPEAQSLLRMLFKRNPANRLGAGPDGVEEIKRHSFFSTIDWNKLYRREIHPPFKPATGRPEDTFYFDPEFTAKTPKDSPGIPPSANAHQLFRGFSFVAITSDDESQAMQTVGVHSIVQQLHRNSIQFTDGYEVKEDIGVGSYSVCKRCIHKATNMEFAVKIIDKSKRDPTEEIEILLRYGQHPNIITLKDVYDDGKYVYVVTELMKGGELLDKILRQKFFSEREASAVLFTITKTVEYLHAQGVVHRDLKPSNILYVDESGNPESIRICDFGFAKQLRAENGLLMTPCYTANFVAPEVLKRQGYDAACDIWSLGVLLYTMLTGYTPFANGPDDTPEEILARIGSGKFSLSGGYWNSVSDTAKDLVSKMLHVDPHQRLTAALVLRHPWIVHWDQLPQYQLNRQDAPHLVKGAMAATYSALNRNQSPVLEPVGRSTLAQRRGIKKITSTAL

In general, Kd refers to the equilibrium constant for the complex coming apart. For `CCc1nc(C(N)=O)c(Nc2ccc(N3CCC(N4CCN(C)CC4)CC3)c(OC)c2)nc1NC1CCOCC1` [GILTERITINIB], the Kd was > 30 µM (inactive) in assay [1], > 30 µM (inactive) in assay [2], 2.66 µM (active) in assay [3] and 0.495 µM on ADP/ATP translocase 3.

Consider `Cc1cc(Nc2nc(N[C@@H](C)c3ncc(F)cn3)ncc2Cl)n[nH]1` [AZD-1480], for which the Kd (in assay [1]; in assay [2]; in assay [3]; at ADP/ATP translocase 3) was > 30 µM (inactive) each time.

For `Cc1ccc(C(=O)Nc2ccc(Oc3cc4cnn(C)c4cc3-c3cn[nH]c3)c(F)c2)c(=O)n1-c1ccc(F)cc1` [MERESTINIB], the Kd (in assay [1]; in assay [2]; in assay [3]; at ADP/ATP translocase 3) was > 30 µM (inactive) each time.

With `C#Cc1cccc(Nc2ncnc3cc4c(cc23)OCCOCCOCCO4)c1` [ICOTINIB], the Kd (in assay [1]; in assay [2]; in assay [3]; at ADP/ATP translocase 3) was > 30 µM (inactive) each time.

`C=CCn1c(=O)c2cnc(Nc3ccc(N4CCN(C)CC4)cc3)nc2n1-c1cccc(C(C)(C)O)n1` [ADAVOSERTIB]: the Kd (in assay [1]; in assay [2]; at ADP/ATP translocase 3) was > 30 µM (inactive) throughout.

On to `COc1cc(F)c(F)c(Nc2ccc(I)cc2F)c1NS(=O)(=O)C1(C[C@H](O)CO)CC1` [REFAMETINIB], for which the Kd (in assay [1]; in assay [2]; in assay [3]; on ADP/ATP translocase 3) was > 30 µM (inactive) in each case.

As to `CCOc1ccn(-c2ccc(F)cc2)c(=O)c1C(=O)Nc1ccc(Oc2ccnc(N)c2Cl)c(F)c1` [BMS-777607], the Kd (in assay [1]; in assay [2]; in assay [3]; on ADP/ATP translocase 3) was > 30 µM (inactive) throughout.

With `O[C@H]1CC[C@H](Nc2ncc3nc(Nc4c(F)cc(F)cc4F)n([C@H]4CCOC4)c3n2)CC1` [TANZISERTIB], the Kd (in assay [1]; in assay [2]; in assay [3]; on ADP/ATP translocase 3) was > 30 µM (inactive) each time.

For the compound `FC(F)(F)c1ccc(CNc2ccc(Cc3c[nH]c4ncc(Cl)cc34)cn2)cn1` [PEXIDARTINIB], the Kd (in assay [1]; in assay [2]; in assay [3]; at ADP/ATP translocase 3) was > 30 µM (inactive) in each case.

With `CNC(=O)c1cc(COc2nnc(Nc3ccc(Cl)cc3)c3ccoc23)ccn1` [TELATINIB], the Kd (in assay [1]; in assay [2]; in assay [3]; on ADP/ATP translocase 3) was > 30 µM (inactive) each time.

In the case of `COc1cc2ncnc3c2cc1OCCCCCN(C)Cc1ccc(Br)cc1N3` [JNJ-26483327], the Kd (in assay [1]; in assay [2]; in assay [3]; on ADP/ATP translocase 3) was > 30 µM (inactive) throughout.

As for `CNC(=O)c1cccc(-c2ccc3c(N4CCOC[C@@H]4C)nc(N4CCOC[C@@H]4C)nc3n2)c1` [VISTUSERTIB], the Kd (in assay [1]; in assay [2]; in assay [3]; at ADP/ATP translocase 3) was > 30 µM (inactive) throughout.

On to `CC1(C)CNc2cc(NC(=O)c3cccnc3NCc3ccncc3)ccc21` [MOTESANIB], for which the Kd (in assay [1]; on ADP/ATP translocase 3) was > 30 µM (inactive) throughout.

Regarding `CC1(COc2ccc3c(c2)ncn3-c2ccc3cccc(N4CCC(N)CC4)c3n2)COC1` [CRENOLANIB], the Kd was > 30 µM (inactive) in assay [1], 0.839 µM (active) in assay [2], > 30 µM (inactive) in assay [3] and > 30 µM (inactive) at ADP/ATP translocase 3.

For the compound `COc1cc2c(N3CCN(C(=O)Nc4ccc(OC(C)C)cc4)CC3)ncnc2cc1OCCCN1CCCCC1` [TANDUTINIB], the Kd (in assay [1]; at ADP/ATP translocase 3) was > 30 µM (inactive) throughout.

Consider `O=S(=O)(c1cccc2cnccc12)N1CCCNCC1` [FASUDIL], for which the Kd (in assay [1]; on ADP/ATP translocase 3) was > 30 µM (inactive) each time.

With `CCN(CCCOc1ccc2c(Nc3cc(CC(=O)Nc4cccc(F)c4)n[nH]3)ncnc2c1)CCOP(=O)(O)O` [BARASERTIB], the Kd (in assay [1]; in assay [2]; at ADP/ATP translocase 3) was > 30 µM (inactive) throughout.

Regarding `CN(C)C/C=C/C(=O)Nc1cc2c(Nc3ccc(F)c(Cl)c3)ncnc2cc1O[C@H]1CCOC1` [AFATINIB], the Kd (in assay [1]; at ADP/ATP translocase 3) was > 30 µM (inactive) in each case.

Take `Cn1cnc2c(F)c(Nc3ccc(Br)cc3Cl)c(C(=O)NOCCO)cc21` [SELUMETINIB]: the Kd (in assay [1]; on ADP/ATP translocase 3) was > 30 µM (inactive) each time.

Regarding `CC(C)(O)CC(=O)NCCn1ccc2ncnc(Nc3ccc(Oc4cccc(C(F)(F)F)c4)c(Cl)c3)c21` [TAK-285], the Kd (in assay [1]; in assay [3]; at ADP/ATP translocase 3) was > 30 µM (inactive) in each case.

For `Cn1c(=O)n(-c2ccc(C(C)(C)C#N)cc2)c2c3cc(-c4cnc5ccccc5c4)ccc3ncc21` [DACTOLISIB], the Kd (in assay [1]; in assay [2]; at ADP/ATP translocase 3) was > 30 µM (inactive) throughout.

Regarding `COc1cc2c(Oc3ccc4[nH]c(C)cc4c3F)ncnc2cc1OCCCN1CCCC1` [CEDIRANIB], the Kd (in assay [1]; at ADP/ATP translocase 3) was > 30 µM (inactive) throughout.

Turning to `C[C@]1(O)C[C@@H](c2nc(-c3ccc4ccc(-c5ccccc5)nc4c3)c3c(N)nccn32)C1` [LINSITINIB], the Kd (in assay [1]; in assay [2]; on ADP/ATP translocase 3) was > 30 µM (inactive) each time.

`CN(c1ncccc1CNc1nc(Nc2ccc3c(c2)CC(=O)N3)ncc1C(F)(F)F)S(C)(=O)=O` [PF-00562271]: the Kd (in assay [1]; in assay [2]; on ADP/ATP translocase 3) was > 30 µM (inactive) each time.

On to `C[C@@]1(C(=O)Nc2ccc(F)nc2)CCCN1c1nc(Nc2cc(C3CC3)n[nH]2)c2cccn2n1` [BMS-754807], for which the Kd (in assay [1]; on ADP/ATP translocase 3) was > 30 µM (inactive) in each case.

With `NC[C@@](O)(c1ccc(Cl)cc1)c1ccc(-c2cn[nH]c2)cc1` [AT-13148], the Kd in assay [1] and in assay [3] was > 30 µM (inactive) in each case.
